Source: patent EP2073012A1, “Method for the isolation and identification of ADP-ribosylated molecules” (Fondazione Telethon, priority 2007, dated 2009)

Key:
[1] = molecular target: T1, Af1521 (Archaeoglobus fulgidus, UniProt O28751); conditions: cited from earlier work
T1 sequence (O28751 1-192): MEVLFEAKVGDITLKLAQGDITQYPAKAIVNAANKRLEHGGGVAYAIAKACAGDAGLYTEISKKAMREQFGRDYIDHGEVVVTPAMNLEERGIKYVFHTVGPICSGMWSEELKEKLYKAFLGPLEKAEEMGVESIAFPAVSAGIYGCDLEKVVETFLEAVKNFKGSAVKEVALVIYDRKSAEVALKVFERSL

[2] = tested on: BAL9; conditions: cited from earlier work
[3] = molecular target: T2, His6-mAf1521 (Archaeoglobus fulgidus, UniProt O28751); test: Pull-down displacement assay: free ADP-ribose added after pull-down of [32P]-ADP-ribosylated β subunit by resin-bound His6-mAf1521; format: binding
T2 construct: made in house
T2 sequence (O28751 1-192): T1 sequence (O28751 1-192)
Method: Samples (10 µg plasma membranes) were incubated with 50 µl ADP-ribosylation buffer (50 mM potassium phosphate buffer (PFB), pH 7.4, 5 mM MgCl2, 4 mM dithiothreitol (DTT), 10 µM GTPγS, 700 µM β-NAD^+ and 4.5 µCi [^32P]-NAD (specific activity: 1,000 Ci/mmol)) at 37 °C for 60 min, unless otherwise specified. Under these conditions, 10% of the total β was mono-ADP-ribosylated; to obtain maximal modification (80%-100% of total β mono-ADP-ribosylated), the incubation was prolonged to 12 h at 30 °C. The in-vitro PT-catalyzed ADP-ribosylation was performed as previously described^34, using either total membranes or purified proteins (β-action or SLC25A5; Sigma and Abnova Corporation, respectively). […]
Plasma membranes (10 µg for each sample) were ADP-ribosylated as described above, washed with 50 mM PFB, pH 7.4, to remove unbound NAD, and then centrifuged at 16.000x g for 15 min at 4 °C. […] Then the resin was washed three times with RIPA buffer plus 10 mM imidazole, and finally both the washed resin and the unbound fraction (one-eight of the total volume) were diluted in 50 µl Laemmli buffer, boiled and analysed by 10% SDS-PAGE. […] The gels underwent colloidal Coomassie blue (blue code, Pierce) or silver staining, and the bands of interest were analysed by MALDI-TOF-MS. […]

NC(=O)c1ccc[n+]([C@@H]2O[C@H](COP(=O)([O-])OP(=O)(O)OC[C@H]3O[C@@H](n4cnc5c(N)ncnc54)[C@H](O)[C@@H]3O)[C@@H](O)[C@H]2O)c1 [NAD]
fold lower affinity than free ADP-ribose [1]: > 1000 fold | fold lower affinity than free ADP-ribose [2]: > 1000 fold

ADP-ribose
excess of ADP-ribose able to displace the immobilized ADP-ribosylated β subunit from the His6-mAf1521-resin complex ([3]; molar excess over bound β subunit): ~100 fold | ADP-ribose concentration to displace all of the His6-mAf1521-bound [32P]-ADP-ribosylated β subunit ([3]; ∼400 pmol ADP-ribose against ∼4 pmol bound β subunit): 100 µM

Nc1ncnc2c1ncn2[C@@H]1O[C@H](CO)[C@@H](O)[C@H]1O [adenosine]
fold lower affinity than free ADP-ribose [1]: > 1000 fold | fold lower affinity than free ADP-ribose [2]: > 1000 fold
